Measured values as given in patent US20170313755A1 (priority 2016, published 2017).
Entries after “also recorded” stand apart in the source; their conditions may differ.

B1: IGF1 (Y^B16L^B17) analog (ligand)
chain 1: GIVDECCFRSCDLRRLEMYCA
chain 2: GPETLCGAELVDALYLVCGDRGFYFNKPT
notes: Two chain analog; also called IGF analog

Tested on: insulin receptor A (IRA) and insulin receptor B (IRB) isoforms
Experiment: Insulin receptor phosphorylation assay in receptor transfected HEK293 cells
Format: cell-based, human
Conditions: agonism
Method: Color development was stopped 5 min later by adding 0.05 ml 1 N HCl. Absorbance at 450 nm was measured on Titertek Multiscan MCC340 (ThermoFisher, Pittsburgh, Pa.). Absorbance vs. peptide concentration dose response curves were plotted and EC50 values were determined by using Origin software (OriginLab, Northampton, Mass.).
Optical density at 450 nm was graphed as a function of peptide concentration using Origin Pro 9.0 graphing software.

| Molecule | agonist (maximal) activity at the insulin receptor isoforms | potency at the insulin receptor isoforms |
| --- | --- | --- |
| #6(A1)-Cys-Insulin: B29 modified insulin disulfide-conjugated to 6(A1)Cys ALEEEWAQIQSEVWGRGPSYC (SEQ ID NO: 171) | almost no effect upon bioactivity | – |
| #6(A2)-Cys-Insulin: B29 modified insulin disulfide-conjugated to 6(A2)Cys SAEEEWAQIQSEVWGRGSPSYC (SEQ ID NO: 172) | restored almost all of the potency and activity | restored almost all of the potency and activity |
| #6(A3)-Cys-Insulin: B29 modified insulin disulfide-conjugated to 6(A3)Cys SLAEEWAQIQSEVWGRGSPSYC (SEQ ID NO: 173) | little effect on maximal activity | shift the potency |
| #6(I2)-Cys-Insulin: B29 modified insulin disulfide-conjugated to 6(I2)Cys SIEEEWAQIQSEVWGRGSPSYC (SEQ ID NO: 175) | very similar, low maximal activities | – |
| #6(Q2)-Cys-Insulin: B29 modified insulin disulfide-conjugated to 6(Q2)Cys SQEEEWAQIQSEVWGRGSPSYC (SEQ ID NO: 180) | without a significant decrease in maximal activity; also recorded: high of maximal activity | shift in potency; also recorded: decrease in potency |
| #6(V2)-Cys-Insulin: B29 modified insulin disulfide-conjugated to 6(V2)Cys SVEEEWAQIQSEVWGRGSPSYC (SEQ ID NO: 176) | slight increase in maximal activity | – |
| #6(dL2)-Cys-Insulin: B29 modified insulin disulfide-conjugated to 6(dL2)Cys SdLEEEWAQIQSEVWGRGSPSYC (SEQ ID NO: 174) | low activity | decreased potency |
| #6(des1-5)-Cys-Insulin: B29 modified insulin disulfide-conjugated to 6(des1-5)Cys WAQIQSEVWGRGSPSYC (SEQ ID NO: 170) | full activity | full potency |
| #Insulin-Cys-4: B29 modified insulin disulfide-conjugated to Cys4 CGSLDESFYDWFERQLG (SEQ ID NO: 166) | only a small change in maximal activity | a small decrease in potency |
| modified insulin: native insulin modified with an NHS ester to carry one additional thiol functional group at the B29 lysine | fully activating the insulin receptor isoforms | slightly reduced potency |

Same assay, conditions: agonism, both receptor isoforms

| Molecule | maximal activity relative to native insulin |
| --- | --- |
| #6(F2)-Cys-Insulin: B29 modified insulin disulfide-conjugated to 6(F2)Cys SFEEEWAQIQSEVWGRGSPSYC (SEQ ID NO: 177) | ~50% |
| #6(W2)-Cys-Insulin: B29 modified insulin disulfide-conjugated to 6(W2)Cys SWEEEWAQIQSEVWGRGSPSYC (SEQ ID NO: 178) | approximately 60% |
| #6(Y2)-Cys-Insulin: B29 modified insulin disulfide-conjugated to 6(Y2)Cys SYEEEWAQIQSEVWGRGSPSYC (SEQ ID NO: 179) | approximately 70% |

Same assay, conditions: conjugate against native insulin

| Molecule | antagonism at the insulin receptor isoforms |
| --- | --- |
| #4-Cys-Insulin: B29 modified insulin disulfide-conjugated to 4Cys GSLDESFYDWFERQLGC (SEQ ID NO: 167) | some degree of antagonism |

Tested on: mice
Experiment: Comparative insulin tolerance tests on mice (acylated insulin analogs)
Format: in vivo
Conditions: 27 nmol/kg and 90 nmol/kg; even after 8 hours
Method: The polypeptides were tested at two different concentrations (27 nmol/kg and 90 nmol/kg). The acylated insulins included MIU-41, MIU-36 and MIU-37.
The compounds were tested at two different concentrations (27 nmol/kg and 90 nmol/kg).

| Molecule | blood glucose lowering relative to native insulin |
| --- | --- |
| [B^1(C16-K0,H5,H10,Y16,L17)26A: A1(N18,N21)] [MIU-36] | more basal and sustained lowered glucose levels |
| [B^1(H5,H10,Y16,L17)26A: A^1(H8,rEC16-K14,N18,N21)] [MIU-41] | more basal and sustained lowered glucose levels |
| [B^1(H5,H10,Y16,L17,C16rE-K22)26A: A^1(N18,N21)] [MIU-37] | more basal and sustained lowered glucose levels |

Tested on: STZ-mice
Experiment: Blood glucose in STZ diabetic mice after insulin/antagonist peptide conjugates
Format: in vivo
Conditions: 10 nmol/kg, mice fasted 2 hours
Method: The peptides were tested in STZ-mice, due to their high fasting blood glucose levels.

| Molecule | blood glucose response versus equivalent dose of native insulin |
| --- | --- |
| #6(A2)-Cys-Insulin: B29 modified insulin disulfide-conjugated to 6(A2)Cys SAEEEWAQIQSEVWGRGSPSYC (SEQ ID NO: 172) | behaved identically to an equivalent dose of native insulin |

Tested on: insulin receptor A (IRA) and insulin receptor B (IRB) isoforms
Experiment: not given
Conditions: non-covalent addition (in trans); previous work; cited from earlier work

| Molecule | antagonism of native insulin by unconjugated peptide (words) |
| --- | --- |
| SLEEEWAQIQSEVWGRGSPSYC (synthetic insulin receptor antagonist peptide) [#6Cys] | incapable of antagonizing native insulin |

Same assay, conditions: non-covalent addition (in trans); previous work; listed as #6-Cys; cited from earlier work

| Molecule | antagonism of native insulin by unconjugated peptide (words) |
| --- | --- |
| SLEEEWAQIQSEVWGRGSPSYC (synthetic insulin receptor antagonist peptide) [#6Cys] | incapable of antagonism in vitro |

Biological target: T1, human insulin receptor (human, UniProt P06213 28-1382)
T1 construct: whole, on cells; Stood in the assay as plasma membrane fragments on wheat germ agglutinin SPA beads, not as whole cells
Experiment: scintillation proximity competition binding against 125I-insulin, membranes with human insulin receptor
Conditions: not given
Method: The affinity of each peptide for the insulin or IGF-1 receptor was measured in a competition binding assay utilizing scintillation proximity technology. […] Non-specifically bound (NSB) radioactivity was measured in the wells with a four-fold concentration excess of “cold” native ligand than the highest concentration in test samples. Total bound radioactivity was detected in the wells with no competitor. Percent specific binding was calculated as following: % Specific Binding=(Bound-NSB/Total bound-NSB)×100. IC50 values were determined by using Origin software (OriginLab, Northampton, Mass.).

| Molecule | IC50 |
| --- | --- |
| B1 | 0.51 nM |
